From the supplement of paper PMC13380429

Key:
Settings in all cases: 72 h
Caco-2 [1] = experiment: cell viability relative to DMSO; higher = less toxic
Calu-3 [2] = experiment: as above
HepG2 [3] = experiment: as above
Vero E6 [4] = experiment: as above
Calu-3 [5] = experiment: relative viability EC50 (midpoint between 100% and the lowest measured viability); higher = less toxic
HepG2 [6] = experiment: as above
Vero E6 [7] = experiment: as above
Caco-2 [8] = experiment: drug sensitivity score (DSS) for viability; higher = more toxic; extreme values may be limits of the assay
Calu-3 [9] = experiment: as above
HepG2 [10] = experiment: as above
Vero E6 [11] = experiment: as above
Caco-2 [12] = experiment: relative viability EC50 (midpoint between 100% and the lowest measured viability); higher = less toxic
U2OS [13] = experiment: cell viability relative to DMSO; higher = less toxic
U2OS [14] = experiment: relative viability EC50 (midpoint between 100% and the lowest measured viability); higher = less toxic
U2OS [15] = experiment: drug sensitivity score (DSS) for viability; higher = more toxic; extreme values may be limits of the assay

SMILES | cell viability (Caco-2 [1]; 1 nM) [%] | cell viability (Caco-2 [1]; 10 nM) [%] | cell viability (Caco-2 [1]; 100 nM) [%] | cell viability (Caco-2 [1]; 1000 nM) [%] | cell viability (Caco-2 [1]; 10000 nM) [%] | cell viability (Calu-3 [2]; 1 nM) [%] | cell viability (Calu-3 [2]; 10 nM) [%] | cell viability (Calu-3 [2]; 100 nM) [%] | cell viability (Calu-3 [2]; 1000 nM) [%] | cell viability (Calu-3 [2]; 10000 nM) [%] | cell viability (HepG2 [3]; 1 nM) [%] | cell viability (HepG2 [3]; 10 nM) [%] | cell viability (HepG2 [3]; 100 nM) [%] | cell viability (HepG2 [3]; 1000 nM) [%] | cell viability (HepG2 [3]; 10000 nM) [%] | cell viability (Vero E6 [4]; 1 nM) [%] | cell viability (Vero E6 [4]; 10 nM) [%] | cell viability (Vero E6 [4]; 100 nM) [%] | cell viability (Vero E6 [4]; 1000 nM) [%] | cell viability (Vero E6 [4]; 10000 nM) [%] | relative viability EC50 (Calu-3 [5]) [µM] | relative viability EC50 (HepG2 [6]) [nM] | relative viability EC50 (Vero E6 [7]) [nM] | drug sensitivity score (Caco-2 [8]) | drug sensitivity score (Calu-3 [9]) | drug sensitivity score (HepG2 [10]) | drug sensitivity score (Vero E6 [11]) | relative viability EC50 (Caco-2 [12]) [µM] | cell viability (U2OS [13]; 1 nM) [%] | cell viability (U2OS [13]; 10 nM) [%] | cell viability (U2OS [13]; 100 nM) [%] | cell viability (U2OS [13]; 1000 nM) [%] | cell viability (U2OS [13]; 10000 nM) [%] | relative viability EC50 (U2OS [14]) [µM] | drug sensitivity score (U2OS [15])
CN(c1ncccc1CNc1nc(Nc2ccc3c(c2)CC(=O)N3)ncc1C(F)(F)F)S(C)(=O)=O | 105 | 111 | 107 | 91.5 | 53.1 | 108 | 104 | 100 | 108 | 39.5 | 108 | 113 | 108 | 74.1 | 7.9 | 98.5 | 101 | 87.8 | 83.9 | 41.5 | 3.74 | 1460 | 1640 | 3.9 | 2.8 | 9 | 5.1 | – | – | – | – | – | – | – | –
O=C(NCCCCCCNC(=O)ON=C1CCCCC1)ON=C1CCCCC1 | 105 | 98.1 | 98.3 | 103 | 102 | 98.4 | 95.9 | 108 | 98.8 | 99.6 | 99.2 | 104 | 100 | 94.6 | 93.9 | 98.8 | 103 | 99.5 | 100 | 105 | > 10 | > 10000 | > 10000 | 0 | 0 | 0 | 0 | > 10 | – | – | – | – | – | – | –
O=S1(=O)N[C@H]2CCCN2c2ccccc21 | 100 | 96.7 | 88.4 | 104 | 113 | 93.3 | 106 | 108 | 104 | 101 | 96.8 | 99.3 | 89.7 | 104 | 86.7 | 101 | 100 | 98 | 89.5 | 96.7 | > 10 | > 10000 | > 10000 | 0 | 0 | 0.1 | 0 | > 10 | – | – | – | – | – | – | –
CC1(C)CCC(C)(C)c2cc(C(=O)Nc3ccc(C(=O)O)cc3)ccc21 [AM-580] | 95.5 | 99.1 | 98.1 | 95.6 | 93.9 | 89.5 | 83.4 | 71.6 | 77.3 | 81.6 | 92.6 | 101 | 101 | 102 | 97.3 | 103 | 106 | 102 | 101 | 96.5 | – | > 10000 | > 10000 | 0 | 7.7 | 0 | 0 | > 10 | 100 | 96.7 | 95.6 | 90.5 | 95.6 | > 10 | 0
CC[C@H](CC#N)OC(=O)N[C@@H](C)c1cccc(NC(=O)Nc2ccc(-c3cnco3)c(OC)c2)c1 [AVN-944] | 102 | 94.1 | 93.6 | 54.8 | 48 | 97.6 | 92.9 | 88.7 | 57.3 | 58.2 | 89 | 106 | 101 | 37.6 | 29 | 97.8 | 108 | 103 | 67.6 | 30.2 | – | 464 | 1060 | 9.1 | 9.1 | 11.5 | 8 | 0.319 | 105 | 101 | 102 | 45.2 | 22.2 | 0.707 | 10.7
Cc1nnc(C[C@@H]2C=C(c3ccc(Cl)cc3)c3ccccc3-n3c(C)nnc32)o1 [BET-BAY-002] | 96.9 | 97.1 | 90.4 | 74.8 | 68.3 | 93.1 | 103 | 94.7 | 62.5 | 53.9 | 91 | 94.1 | 87 | 58.6 | 41.5 | 94.6 | 98 | 72.1 | 23.3 | 16.2 | – | 355 | 169 | 4.9 | 7.4 | 9.2 | 17.5 | – | 97.1 | 101 | 88.2 | 61.4 | 36.9 | 0.557 | 8.6
CCCC[C@@H](NC(=O)[C@@H](Cc1cn(C(=O)OC)c2ccccc12)NC(=O)[C@H](CC(C)(C)C)NC(=O)N1[C@H](C)CCC[C@@H]1C)C(=O)O [BQ-788] | 102 | 104 | 96.1 | 106 | 104 | 98.9 | 98.3 | 112 | 106 | 97.2 | 89.9 | 88.1 | 104 | 107 | 101 | – | – | – | – | – | > 10 | > 10000 | – | 0 | 0 | 0 | – | > 10 | 97.1 | 90.1 | 95.8 | 105 | 99.8 | > 10 | 0
CCCCCCCCCCC(C)(C)C(=O)Nc1c(OC)cc(OC)cc1OC [CI-976] | 98.7 | 97.9 | 91.7 | 99.5 | 90.2 | 101 | 97.6 | 95.5 | 112 | 99.3 | 105 | 103 | 103 | 102 | 96.5 | – | – | – | – | – | > 10 | > 10000 | – | 0 | 0 | 0 | – | > 10 | 100 | 101 | 98.9 | 103 | 97.9 | > 10 | 0
CC1(C)CCC(C)(C)c2cc(C#Cc3ccc(C(=O)O)cc3)ccc21 [EC-23] | 104 | 105 | 89.1 | 88.8 | 80.6 | 106 | 88.7 | 83.9 | 63.9 | 85.7 | 96.5 | 108 | 104 | 108 | 106 | 102 | 99.6 | 100 | 97.4 | 94.2 | – | > 10000 | > 10000 | 1.7 | 5.2 | 0 | 0 | > 10 | 105 | 100 | 98.4 | 95.7 | 97.4 | > 10 | 0
CCOc1cc2ncc(C#N)c(Nc3ccc(OCc4cccc(F)c4)c(Cl)c3)c2cc1NC(=O)/C=C/CN(C)C [HKI-357] | 94.4 | 95.3 | 88.1 | 77.9 | 6 | 101 | 81 | 51.5 | 94.1 | 32.9 | 97 | 93.6 | 102 | 90.9 | 0.3 | 99.7 | 106 | 92.6 | 65.3 | 0.2 | 0.373 | 2410 | 1370 | 8.6 | 10.7 | 7 | 9.8 | 1.63 | – | – | – | – | – | – | –
CO[C@@H]1COCC[C@@H]1N[C@@H]1CC[C@@](C(=O)N2CCc3ncc(C(F)(F)F)cc3C2)(C(C)C)C1 [MK-0812] | 110 | 95.7 | 99 | 113 | 97.5 | – | – | – | – | – | 96.5 | 82.9 | 90.3 | 94.7 | 98.4 | 102 | 100 | 111 | 106 | 97.2 | – | > 10000 | > 10000 | 0 | – | 0 | 0 | > 10 | 98.8 | 106 | 101 | 106 | 103 | > 10 | 0
O=S(=O)(N[C@H]1CC[C@@](c2cc(F)ccc2F)(S(=O)(=O)c2ccc(Cl)cc2)CC1)C(F)(F)F [MRK-560] | 88.8 | 99.1 | 94.5 | 94.7 | 95.6 | 96.2 | 91.2 | 104 | 97.7 | 102 | 98.5 | 91.2 | 106 | 81.5 | 86.4 | – | – | – | – | – | > 10 | > 10000 | – | 0 | 0 | 2.1 | – | > 10 | 99.9 | 102 | 100 | 101 | 95.9 | > 10 | 0
O=C(Nc1nc2ccc(NC(=O)C34CC5CC(CC(C5)C3)C4)cc2s1)c1ccccc1 [NVP-231] | 95.6 | 89.2 | 106 | 86.3 | 43.5 | 100 | 96.1 | 91.8 | 93.1 | 50.3 | 83.9 | 98.2 | 91.6 | 74.1 | 35.4 | 101 | 96.1 | 90.3 | 93.9 | 38.4 | – | 1240 | 2340 | 5.2 | 3.8 | 6.4 | 4.4 | 1.58 | 100 | 93.8 | 99.3 | 91.9 | 49.6 | 1.93 | 4
O=C(NC[C@H]1CN(c2ccc(N3CCOCC3=O)cc2)C(=O)O1)c1ccc(Cl)s1 [Rivaroxaban (Xarelto)] | 92.6 | 95.4 | 101 | 86.9 | 91 | 96.4 | 89.7 | 105 | 102 | 96.4 | 102 | 102 | 97.1 | 110 | 90.9 | – | – | – | – | – | > 10 | > 10000 | – | 0 | 0 | 0 | – | > 10 | 103 | 99.1 | 102 | 96 | 102 | > 10 | 0
NS(=O)(=O)c1ccc(-n2nc(C(F)(F)F)cc2-c2ccc(Cl)cc2)cc1 [SC-236] | 102 | 92 | 86.3 | 96.6 | 82.8 | – | – | – | – | – | 111 | 99.5 | 101 | 101 | 103 | 94.7 | 93.3 | 91.6 | 91.6 | 100 | – | > 10000 | > 10000 | 0.7 | – | 0 | 0 | > 10 | 99.1 | 96 | 98.1 | 102 | 103 | > 10 | 0
NC(=O)Nc1sc(-c2ccc(F)cc2)cc1C(N)=O [TPCA-1] | 95.6 | 99.4 | 94.2 | 76.6 | 25.8 | 98.1 | 104 | 97.7 | 96.4 | 75.9 | 99.5 | 95.8 | 94.2 | 80.6 | 49.8 | 104 | 98.3 | 101 | 98.2 | 52 | > 10 | 1300 | – | 7.2 | 1.4 | 4.7 | 2.7 | 1.44 | 100 | 104 | 95.9 | 94.6 | 45.3 | 2.35 | 3.8
